These results are taken from patent US9850283B2, “Macrocyclic inhibitors of the PD-1/PD-L1 and CD80(B7-1)/PD-L1 protein/protein interactions” (BRISTOL-MYERS SQUIBB COMPANY, priority 2013, dated 2017).

By pIC50 is commonly meant −log10 of the IC50, conventionally taken in molar units.

Assay [1] addresses T1, Human PD-L1/PD-1 (Homo sapiens, UniProt Q9NZQ7).
T1 construct: made in house; host or cells: HEK293T
Briefly: HTRF PD-1-Ig/PD-L1-His binding assay (human PD-L1). The following applies: cluster symbol; read-out: HTRF IC50 cluster. The essentials:
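The time-resolved fluorescence signal comes from Eu-cryptate anti-Ig (1 nM) and APC anti-His (20 nM) antibodies bound to a PD-1-Ig/PD-L1-His complex. Both partners lack transmembrane regions.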
On the technique in general: Time-resolved FRET reads energy transfer from a long-lived donor to a nearby acceptor.

The target in assay [2] is T2, LK35.2-hPD-L1 cells / PE-labeled PD-1-Ig (Homo sapiens, UniProt Q9NZQ7).
T2 construct: expressed in transfected cells; host or cells: LK35.2 mouse B cell line
T2 sequence (Q9NZQ7 19-290): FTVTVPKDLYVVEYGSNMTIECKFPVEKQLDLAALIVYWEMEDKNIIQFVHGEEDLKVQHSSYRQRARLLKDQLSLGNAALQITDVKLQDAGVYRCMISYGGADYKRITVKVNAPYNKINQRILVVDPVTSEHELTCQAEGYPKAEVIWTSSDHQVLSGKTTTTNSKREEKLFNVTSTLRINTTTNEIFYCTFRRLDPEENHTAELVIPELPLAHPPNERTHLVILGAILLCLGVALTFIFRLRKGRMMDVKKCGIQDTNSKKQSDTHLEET
The assay is described as follows: LK35.2-hPD-L1 cell binding high-content screening assay. It is filed as cell-based. As to conditions: cluster symbol, read-out: CBA IC50 cluster. The essentials:
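Compound effect on PD-1/PD-L1 binding is measured by imaging cell-associated phycoerythrin signal. Human PD-1-Ig (PE on Ig tag, 1 nM final) is applied with compound to a murine B cell line overexpressing human PD-L1 for 1 h at 37 °C in serum-containing RPMI.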

Setting [3] is: cell binding assay, cell line not given.
Setting [4] is: cell line of CBA not given (LK35.2-hPD-L1 or 293T-hPD-L1).

pIC50: −log10 of the molar value. Where two headings read alike, the source gives them in different places. Starred links: 1 amine or outer side, 2 acyl side, 3 side chain; linkers in the order of their positions; H or OH if unused. Positions of bridges follow the written chain, without caps; N, C: chain ends. Non-standard residues stand in square brackets, D forms with d. Residues, ends and D or L forms follow the SMILES beside them. ξ: configuration not given here. X18 = CS(=O)(=O)Nc1ccc(C[C@H](N[*:1])C(=O)[*:2])cc1; Phe(4-CH2NH2) = NCc1ccc(C[C@H](N)C(=O)O)cc1; Phe(2-Cl) = N[C@@H](Cc1ccccc1Cl)C(=O)O; Phe(3-F) = N[C@@H](Cc1cccc(F)c1)C(=O)O; Bta = N[C@@H](Cc1csc2ccccc12)C(=O)O; ξPro(4R-OH) = O=C(O)C1C[C@@H](O)CN1; Hyp = O=C(O)[C@@H]1C[C@@H](O)CN1; NMeF = CN[C@@H](Cc1ccccc1)C(=O)O; dNMeNle = CCCC[C@@H](NC)C(=O)O; NMeNle = CCCC[C@H](NC)C(=O)O; NMeM = CN[C@@H](CCSC)C(=O)O; NMeS = CN[C@@H](CO)C(=O)O; NMeA = CN[C@@H](C)C(=O)O; Orn = NCCC[C@H](N)C(=O)O; Dab = NCC[C@H](N)C(=O)O; Dap = NC[C@H](N)C(=O)O; ξPip = O=C(O)C1CCCCN1; ξC = NC(CS)C(=O)O; Sar = CNCC(=O)O Bounds are passed on as bounds.

T1 sequence (Q9NZQ7 with tags, fused parts or gaps): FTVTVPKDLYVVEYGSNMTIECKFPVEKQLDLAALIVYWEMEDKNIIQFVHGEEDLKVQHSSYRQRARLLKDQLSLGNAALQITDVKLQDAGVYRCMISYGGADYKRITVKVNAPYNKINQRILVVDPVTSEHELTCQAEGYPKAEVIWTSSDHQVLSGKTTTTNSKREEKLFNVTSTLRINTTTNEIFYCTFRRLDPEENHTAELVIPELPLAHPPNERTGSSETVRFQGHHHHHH

For `CCCC[C@H]1C(=O)N(C)[C@@H](COCC)C(=O)N[C@@H](CCCNC(=N)N)C(=O)NC(C(=O)NCC(N)=O)CSCC(=O)N[C@@H](Cc2ccc(O)cc2)C(=O)N(C)[C@@H](C)C(=O)N[C@@H](CC(N)=O)C(=O)N2CCC[C@H]2C(=O)N[C@@H](Cc2cnc[nH]2)C(=O)N[C@@H](CC(C)C)C(=O)N2CCC[C@H]2C(=O)N[C@@H](Cc2c[nH]c3ccccc23)C(=O)N[C@@H](CO)C(=O)N[C@@H](Cc2csc3ccccc23)C(=O)N1C` (some centres unmarked) [Example 9040] ({CH2CO}-Y[NMeA]NPHLPWS[Bta][NMeNle][NMeS](Et)R[ξC]G-NH2; thioether N-14), the pIC50 in assay [1] is 8.17 to 9.41; in assay [2] (setting [3]), 8.33 to 9.80.
For the compound `CCCC[C@H]1C(=O)N(C)[C@@H](CCSC)C(=O)N[C@@H](C)C(=O)NC(C(=O)NCC(N)=O)CSCC(=O)N[C@@H](Cc2ccc(O)cc2)C(=O)N(C)[C@@H](C)C(=O)N[C@@H](CC(N)=O)C(=O)N2CCC[C@H]2C(=O)N[C@@H](CN)C(=O)N[C@@H](CC(C)C)C(=O)N2C[C@H](O)C[C@H]2C(=O)N[C@@H](Cc2c[nH]c3ccccc23)C(=O)N[C@@H](CO)C(=O)N[C@@H](Cc2csc3ccccc23)C(=O)N1C` (some centres unmarked) [Example 9088] ({CH2CO}-Y[NMeA]NP[Dap]L[Hyp]WS[Bta][NMeNle][NMeM]A[ξC]G-NH2; thioether N-14), the pIC50 is 8.17 to 9.41 in assay [1] and 8.33 to 9.80 in assay [2] (setting [3]).
With `CCCC[C@@H]1C(=O)N(C)[C@H](CCCC)C(=O)N[C@@H](CCCNC(=N)N)C(=O)N[C@@H](C(=O)NCC(N)=O)CSCC(=O)N[C@@H](Cc2ccc(O)cc2)C(=O)N2CCCCC2C(=O)N[C@H](CCC(=O)O)C(=O)N2CCC[C@H]2C(=O)N[C@H](Cc2c[nH]cn2)C(=O)N[C@@H](CCCN)C(=O)N2C[C@H](O)CC2C(=O)N[C@H](Cc2c[nH]c3ccccc23)C(=O)N[C@@H](CO)C(=O)N[C@@H](Cc2c[nH]c3ccccc23)C(=O)N1C` (stereo partly drawn) [Example 1217] ({CH2CO}-Y[ξPip][dE]P[dH][Orn][ξPro(4R-OH)][dW]SW[dNMeNle][dNMeNle]R[dC]G-NH2; thioether N-14), the pIC50 was 7.52 to 8.17 in assay [1] and 7.14 to 8.32 in assay [2] (setting [4]).
In the case of `CCCC[C@H]1C(=O)N(C)[C@@H](CCCC)C(=O)N[C@@H](CC(C)C)C(=O)N[C@H](C(=O)NCC(N)=O)CSCC(=O)N[C@@H](Cc2ccc(O)cc2)C(=O)N(C)[C@@H](C)C(=O)N[C@@H](CC(N)=O)C(=O)N2CCC[C@H]2C(=O)NCC(=O)N[C@@H](CCC(N)=O)C(=O)N2C[C@H](O)C[C@H]2C(=O)N[C@@H](Cc2c[nH]c3ccccc23)C(=O)N[C@@H](CO)C(=O)N[C@@H](Cc2c[nH]c3ccccc23)C(=O)N1C` [Example 5127] ({CH2CO}-Y[NMeA]NPGQ[Hyp]WSW[NMeNle][NMeNle]LCG-NH2; thioether N-14), the pIC50 is 8.17 to 9.41 in assay [1] and 7.14 to 8.32 in assay [2] (setting [3]).
For `CCCC[C@H]1C(=O)N(C)CC(=O)N[C@@H](CC)C(=O)N[C@@H](C(C)C)C(=O)N(C)[C@@H](Cc2ccccc2)C(=O)N[C@@H](Cc2ccc(O)cc2)C(=O)N(C)CC(=O)N[C@@H](Cc2c[nH]c3ccccc23)C(=O)N[C@@H](Cc2ccc(O)cc2)C(=O)N[C@@H](CC(C)C)C(=O)N[C@H](C(=O)NCC(N)=O)CSCC(=O)N[C@@H](Cc2ccccc2)C(=O)N(C)[C@@H](Cc2ccccc2)C(=O)N1C` [Example 3146] (HELM PEPTIDE1{[O=C(C[*:3])[*:2]].F.[meF].[CCCC[C@@H](C(=O)[*:2])N(C)[*:1]].[Sar].[Abu].V.[meF].Y.[Sar].W.Y.L.C.G.[am]}$PEPTIDE1,PEPTIDE1,1:R3-14:R3$$$V2.0), the results for the pIC50 in assay [1] and in assay [2] (setting [4]) were less than 7.52 and 7.14 to 8.32, respectively.
On to `CCCC[C@H]1C(=O)N(C)[C@@H](CCCC)C(=O)N[C@@H](CCCNC(=N)N)C(=O)N[C@H](C(=O)NCC(N)=O)CSCC(=O)N[C@@H](Cc2ccccc2)C(=O)N(C)[C@@H](C)C(=O)N[C@@H](CC(N)=O)C(=O)N2CCC[C@H]2C(=O)N[C@@H](Cc2cnc[nH]2)C(=O)N[C@@H](CC(C)C)C(=O)N(C)CC(=O)N[C@@H](Cc2c[nH]cn2)C(=O)N[C@@H](CO)C(=O)N[C@@H](Cc2c[nH]c3ccccc23)C(=O)N1C` [Example 1073] ({CH2CO}-F[NMeA]NPHL[Sar]HSW[NMeNle][NMeNle]RCG-NH2; thioether N-14), for which the pIC50 in assay [1] is less than 7.52; in assay [2] (setting [4]), less than 7.13.
For `CCCC[C@H]1C(=O)N(C)CC(=O)N[C@@H](CC(=O)O)C(=O)N[C@@H](C(C)C)C(=O)N(C)[C@@H](Cc2ccccc2)C(=O)N[C@@H](Cc2ccc(CN)cc2)C(=O)N(C)CC(=O)N[C@@H](Cc2csc3ccccc23)C(=O)N[C@@H](Cc2ccc(O)cc2)C(=O)N[C@@H](CC(C)C)C(=O)N[C@H](C(=O)NCC(N)=O)CSCC(=O)N[C@@H](Cc2cccc(F)c2)C(=O)N(C)[C@@H](Cc2ccccc2)C(=O)N1C` [Example 3121] ({CH2CO}-[Phe(3-F)][NMeF][NMeNle][Sar]DV[NMeF][Phe(4-CH2NH2)][Sar][Bta]YLCG-NH2; thioether N-13), in that order: 7.52 to 8.17 and 8.33 to 9.80.
In the case of `CCCC[C@H]1C(=O)N(C)CC(=O)N[C@@H](CC(=O)O)C(=O)N[C@@H](C(C)C)C(=O)N(C)[C@@H](Cc2ccccc2)C(=O)N[C@@H](Cc2ccc(O)cc2)C(=O)N(C)CC(=O)N[C@@H](Cc2c[nH]c3ccccc23)C(=O)N[C@@H](Cc2ccc(O)cc2)C(=O)N[C@@H](CC(C)C)C(=O)N[C@H](C(=O)NCC(N)=O)CSCC(=O)N[C@@H](Cc2ccc(O)cc2)C(=O)N(C)[C@@H](Cc2ccccc2)C(=O)N1C` [Example 3065] (HELM PEPTIDE1{[O=C(C[*:3])[*:2]].Y.[meF].[CCCC[C@@H](C(=O)[*:2])N(C)[*:1]].[Sar].D.V.[meF].Y.[Sar].W.Y.L.C.G.[am]}$PEPTIDE1,PEPTIDE1,1:R3-14:R3$$$V2.0), the values for the pIC50 in assay [1] and in assay [2] (setting [4]) were less than 7.52 and less than 7.13, respectively.
Consider `CCCC[C@H]1C(=O)N(C)[C@@H](CCCC)C(=O)N[C@@H](CCCNC(=N)N)C(=O)N[C@H](C(=O)NCC(N)=O)CSCC(=O)N[C@@H](Cc2ccccc2Cl)C(=O)N(C)[C@@H](C)C(=O)N[C@@H](CC(N)=O)C(=O)N2CCC[C@H]2C(=O)N[C@@H](Cc2cnc[nH]2)C(=O)N[C@@H](CC(C)C)C(=O)N(C)CC(=O)N[C@@H](Cc2c[nH]c3ccccc23)C(=O)N[C@@H](CO)C(=O)N[C@@H](Cc2c[nH]c3ccccc23)C(=O)N1C` [Example 1101] ({CH2CO}-[Phe(2-Cl)][NMeA]NPHL[Sar]WSW[NMeNle][NMeNle]RCG-NH2; thioether N-14), for which the figures for the pIC50 in assay [1] and in assay [2] (setting [4]) were less than 7.52 and less than 7.13, respectively.
In the case of `CCCC[C@H]1C(=O)N(C)CC(=O)N[C@@H](CCCNC(=N)N)C(=O)N[C@@H](C(C)C)C(=O)N(C)[C@@H](Cc2ccccc2)C(=O)N[C@@H](Cc2ccc(O)cc2)C(=O)N(C)CC(=O)N[C@@H](Cc2c[nH]c3ccccc23)C(=O)N[C@@H](Cc2ccc(O)cc2)C(=O)N[C@@H](CC(C)C)C(=O)N[C@H](C(=O)NCC(N)=O)CSCC(=O)N[C@@H](Cc2ccccc2)C(=O)N(C)[C@@H](Cc2ccccc2)C(=O)N1C` [Example 3501] (HELM PEPTIDE1{[O=C(C[*:3])[*:2]].F.[meF].[CCCC[C@@H](C(=O)[*:2])N(C)[*:1]].[Sar].R.V.[meF].Y.[Sar].W.Y.L.C.G.[am]}$PEPTIDE1,PEPTIDE1,1:R3-14:R3$$$V2.0), the pIC50 in assay [1] was 7.52 to 8.17; in assay [2] (setting [3]) it was 7.14 to 8.32.
As to `CCCC[C@H]1C(=O)N(C)[C@@H](CCCC)C(=O)N[C@@H](CCN)C(=O)N[C@H](C(=O)NCC(N)=O)CSCC(=O)N[C@@H](Cc2ccc(O)cc2)C(=O)N(C)[C@@H](C)C(=O)N[C@@H](CCN)C(=O)N2CCC[C@H]2C(=O)N[C@@H](CN)C(=O)N[C@@H](CC(C)C)C(=O)N2C[C@H](O)C[C@H]2C(=O)N[C@@H](Cc2c[nH]c3ccccc23)C(=O)N[C@@H](CCN)C(=O)N[C@@H](Cc2c[nH]c3ccccc23)C(=O)N1C` [Example 5140] ({CH2CO}-Y[NMeA][Dab]P[Dap]L[Hyp]W[Dab]W[NMeNle][NMeNle][Dab]CG-NH2; thioether N-14), the pIC50 was 7.52 to 8.17 in assay [1] and 7.14 to 8.32 in assay [2] (setting [3]).
For the compound `CCCC[C@H]1C(=O)N(C)[C@@H](CCCC)C(=O)N[C@@H](CCCN)C(=O)N[C@H](C(=O)NCC(N)=O)CSCC(=O)N[C@@H](Cc2ccc(O)cc2)C(=O)N(C)[C@@H](C)C(=O)N[C@@H](CC(N)=O)C(=O)N2CCC[C@H]2C(=O)N[C@@H](CN)C(=O)N[C@@H](CC(C)C)C(=O)N2C[C@H](Cc3ccc(F)cc3)C[C@H]2C(=O)N[C@@H](Cc2c[nH]c3ccccc23)C(=O)N[C@@H](CO)C(=O)N[C@@H](Cc2c[nH]c3ccccc23)C(=O)N1C` [Example 13013], the results for the pIC50 in assay [1] and in assay [2] (setting [3]) were 8.17 to 9.41 and 8.33 to 9.80, respectively.
Turning to `CCCC[C@H]1C(=O)N(C)[C@@H](CCCC)C(=O)N[C@@H](CCCNC(=N)N)C(=O)N[C@H](C(=O)NCC(N)=O)CSCC(=O)N[C@@H](Cc2ccc(NS(C)(=O)=O)cc2)C(=O)N(C)[C@@H](C)C(=O)N[C@@H](CC(N)=O)C(=O)N2CCC[C@H]2C(=O)N[C@@H](Cc2cnc[nH]2)C(=O)N[C@@H](CC(C)C)C(=O)N(C)CC(=O)N[C@@H](Cc2c[nH]c3ccccc23)C(=O)N[C@@H](CO)C(=O)N[C@@H](Cc2c[nH]c3ccccc23)C(=O)N1C` [Example 1100] ({CH2CO}-[X18][NMeA]NPHL[Sar]WSW[NMeNle][NMeNle]RCG-NH2; thioether N-14), the pIC50 in assay [1] is less than 7.52; in assay [2] (setting [4]), less than 7.13.
